How the values were obtained:
Test in all cases: MIC of compounds alone and combined with antibacterials, broth microdilution (CLSI)
Format in all cases: cell-based
[1] = tested on: Serratia marcescens (SMA) isolates
Procedure, shortened: (§1)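 First, log-phase suspensions are brought to 5.10^5 CFU/mL final in ca-MHB; plates then incubate 16-20 h at 35° C in air. Growth is judged visually, giving the compound MIC alone and the antibacterial MIC at each compound concentration.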

[2] = tested on: Citrobacter freundii (CFR) isolates
Procedure, shortened: as §1

[3] = tested on: Citrobacter koseri (CKR) isolates
Procedure, shortened: as §1

## CC(C)(O/N=C(\C(=O)N[C@@H]1C(=O)N2C(C(=O)[O-])=C(C[n+]3ccccc3)CS[C@H]12)c1csc(N)n1)C(=O)O [CAZ, Ceftazidime]
[1]; SMA UFR30, AF2 @ 8 μg/mL
  MIC ATB in combination: 0.5 µg/mL
[1]; SMA UFR30, AF3 @ 8 μg/mL
  MIC ATB in combination: <=0.25 μg/mL
[1]; SMA UFR134, AF2 @ 8 μg/mL
  MIC ATB in combination: <=0.25 μg/mL
[1]; SMA UFR134, AF3 @ 8 μg/mL
  MIC ATB in combination: 0.5 µg/mL
[1]; SMA UFR135, AF2 @ 8 μg/mL
  MIC ATB in combination: 2 µg/mL
[1]; SMA UFR135, AF3 @ 8 μg/mL
  MIC ATB in combination: 4 µg/mL
[1]; SMA UFR136, AF2 @ 8 μg/mL
  MIC ATB in combination: 2 µg/mL
[1]; SMA UFR136, AF3 @ 8 μg/mL
  MIC ATB in combination: 1 µg/mL
[1]; SMA UFR137, AF2 @ 8 μg/mL
  MIC ATB in combination: <=0.25 μg/mL
[1]; SMA UFR137, AF3 @ 8 μg/mL
  MIC ATB in combination: 0.5 µg/mL
[1]; SMA UFR138, AF2 @ 8 μg/mL
  MIC ATB in combination: 0.5 µg/mL
[1]; SMA UFR138, AF3 @ 8 μg/mL
  MIC ATB in combination: <=0.25 μg/mL
[1]; SMA UFR139, AF2 @ 8 μg/mL
  MIC ATB in combination: 1 µg/mL
[1]; SMA UFR139, AF3 @ 8 μg/mL
  MIC ATB in combination: <=0.25 μg/mL
[1]; SMA UFR141, AF2 @ 8 μg/mL
  MIC ATB in combination: <=0.25 μg/mL
[1]; SMA UFR141, AF3 @ 8 μg/mL
  MIC ATB in combination: 0.5 µg/mL
[1]; SMA UFR142, AF2 @ 8 μg/mL
  MIC ATB in combination: 0.5 µg/mL
[1]; SMA UFR142, AF3 @ 8 μg/mL
  MIC ATB in combination: 0.5 µg/mL
[1]; SMA UFR143, AF2 @ 8 μg/mL
  MIC ATB in combination: <=0.25 μg/mL
[1]; SMA UFR143, AF3 @ 8 μg/mL
  MIC ATB in combination: <=0.25 μg/mL
[1]; SMA UFR239, AF2 @ 8 μg/mL
  MIC ATB in combination: 4 µg/mL
[1]; SMA UFR239, AF3 @ 8 μg/mL
  MIC ATB in combination: 0.5 µg/mL
[1]; strain SMA UFR30, genotype OXA-405
  MIC: 8 µg/mL
[1]; strain SMA UFR134, genotype TEM-1, BES-1
  MIC: 8 µg/mL
[1]; strain SMA UFR135, genotype TEM-1, KPC-2
  MIC: 32 µg/mL
[1]; strain SMA UFR136, genotype TEM-1, SHV-12, KPC-2
  MIC: >256 µg/mL
[1]; strain SMA UFR137, genotype SME-1
  MIC: 0.5 µg/mL
[1]; strain SMA UFR138, genotype SME-1
  MIC: <=0.25 μg/mL
[1]; strain SMA UFR139, genotype SME-2
  MIC: <=0.25 μg/mL
[1]; strain SMA UFR140, genotype IMP-1
  MIC: >128 µg/mL
[1]; strain SMA UFR140, with AF2 @ 8 μg/mL
  MIC ATB in combination: >128 µg/mL
[1]; strain SMA UFR140, with AF3 @ 8 μg/mL
  MIC ATB in combination: >128 µg/mL
[1]; strain SMA UFR141, genotype OXA-48
  MIC: 1 µg/mL
[1]; strain SMA UFR142, genotype OXA-48
  MIC: 0.5 µg/mL
[1]; strain SMA UFR143, genotype CTX-M-15, OXA-1, OXA-48
  MIC: 64 µg/mL
[1]; strain SMA UFR238, genotype OXA-48
  MIC: 0.5 µg/mL
[1]; strain SMA UFR238, with AF2 @ 8 μg/mL
  MIC ATB in combination: 0.5 µg/mL
[1]; strain SMA UFR238, with AF3 @ 8 μg/mL
  MIC ATB in combination: <=0.25 μg/mL
[1]; strain SMA UFR239, genotype ESAC
  MIC: 32 µg/mL
[2]; CFR UFR10, AF2 @ 8 μg/mL
  MIC ATB in combination: <=0.25 μg/mL
[2]; CFR UFR10, AF3 @ 8 μg/mL
  MIC ATB in combination: <0.25 µg/mL
[2]; CFR UFR11, AF2 @ 8 μg/mL
  MIC ATB in combination: 8 µg/mL
[2]; CFR UFR11, AF3 @ 8 μg/mL
  MIC ATB in combination: 4 µg/mL
[2]; CFR UFR37, AF2 @ 8 μg/mL
  MIC ATB in combination: 8 µg/mL
[2]; CFR UFR37, AF3 @ 8 μg/mL
  MIC ATB in combination: <0.25 µg/mL
[2]; CFR UFR83, AF2 @ 8 μg/mL
  MIC ATB in combination: >128 µg/mL
[2]; CFR UFR83, AF3 @ 8 μg/mL
  MIC ATB in combination: >128 µg/mL
[2]; CFR UFR146, AF2 @ 8 μg/mL
  MIC ATB in combination: 2 µg/mL
[2]; CFR UFR146, AF3 @ 8 μg/mL
  MIC ATB in combination: 1 µg/mL
[2]; CFR UFR248, AF2 @ 8 μg/mL
  MIC ATB in combination: <0.25 µg/mL
[2]; CFR UFR248, AF3 @ 8 μg/mL
  MIC ATB in combination: <0.25 µg/mL
[2]; CFR UFR249, AF2 @ 8 μg/mL
  MIC ATB in combination: <=0.25 μg/mL
[2]; CFR UFR249, AF3 @ 8 μg/mL
  MIC ATB in combination: <0.25 µg/mL
[2]; CFR UFR250, AF2 @ 8 μg/mL
  MIC ATB in combination: <=0.25 μg/mL
[2]; CFR UFR250, AF3 @ 8 μg/mL
  MIC ATB in combination: <0.25 µg/mL
[2]; strain CFR UFR11, genotype TEM-1, OXA-1, OXA-48
  MIC: 8 µg/mL
[2]; strain CFR UFR37, genotype TEM-1, CTX-M-15, NDM-1
  MIC: >128 µg/mL
[2]; strain CFR UFR83, genotype TEM-3, AmpC
  MIC: >128 µg/mL
[2]; strain CFR UFR146, genotype TEM-1, KPC-2
  MIC: 32 µg/mL
[2]; strain CFR UFR147, genotype TEM-1, CTX-M-15, OXA-1, OXA-181, OXA-10, OXA-9, NDM-1, ArmA, dfrA12, aadA2, antibiotic alone
  MIC: >128 µg/mL
[2]; strain CFR UFR147, with AF2 @ 8 μg/mL
  MIC ATB in combination: <0.25 µg/mL
[2]; strain CFR UFR147, with AF3 @ 8 μg/mL
  MIC ATB in combination: <0.25 µg/mL
[2]; strain CFR UFR148, genotype TEM-1, TEM-2, CTX-M-15, NDM-1, antibiotic alone
  MIC: >128 µg/mL
[2]; strain CFR UFR148, with AF2 @ 8 μg/mL
  MIC ATB in combination: <0.25 µg/mL
[2]; strain CFR UFR148, with AF3 @ 8 μg/mL
  MIC ATB in combination: <0.25 µg/mL
[2]; strain CFR UFR249, genotype TEM-1, CTX-M-15
  MIC: 64 µg/mL
[2]; strain CFR UFR251, with AF2 @ 8 μg/mL
  MIC ATB in combination: 0.5 µg/mL
[2]; strain CFR UFR251, with AF3 @ 8 μg/mL
  MIC ATB in combination: <0.25 µg/mL
[2]; strain CFR UFR252, genotype VIM-2, antibiotic alone
  MIC: 64 µg/mL
[2]; strain CFR UFR252, with AF2 @ 8 μg/mL
  MIC ATB in combination: 8 µg/mL
[2]; strain CFR UFR252, with AF3 @ 8 μg/mL
  MIC ATB in combination: 16 µg/mL
[2]; strain CFR UFR253, genotype TEM-1, SHV-12, OXA-48
  MIC: >128 µg/mL
[2]; strain CFR UFR253, with AF2 @ 8 μg/mL
  MIC ATB in combination: 8 µg/mL
[2]; strain CFR UFR253, with AF3 @ 8 μg/mL
  MIC ATB in combination: 4 µg/mL
[2]; strain CFR UFR254, with AF2 @ 8 μg/mL
  MIC ATB in combination: <0.25 µg/mL
[2]; strain CFR UFR254, with AF3 @ 8 μg/mL
  MIC ATB in combination: 0.5 µg/mL
[3]; CKO ROU, AF2 @ 8 μg/mL
  MIC ATB in combination: 1 µg/mL
[3]; CKO ROU, AF3 @ 8 μg/mL
  MIC ATB in combination: 1 µg/mL
[3]; CKO UFR149, AF2 @ 8 μg/mL
  MIC ATB in combination: <0.25 µg/mL
[3]; CKO UFR149, AF3 @ 8 μg/mL
  MIC ATB in combination: <0.25 µg/mL
[3]; CKO UFR150, AF2 @ 8 μg/mL
  MIC ATB in combination: 4 µg/mL
[3]; CKO UFR150, AF3 @ 8 μg/mL
  MIC ATB in combination: 4 µg/mL
[3]; strain CKO ROU, genotype TEM-1, SHV-12, CTX-M-15, OXA-1, OXA-48
  MIC: 1 µg/mL
[3]; strain CKO UFR149, genotype OXA-48
  MIC: >128 µg/mL
[3]; strain CKO UFR150, genotype TEM-1, OXA-48
  MIC: 4 µg/mL
